# From ChEMBL document CHEMBL1240316, “An oxidation-sensing mechanism is used by the global regulator MgrA in Staphylococcus aureus” (2006)
# Active and inactive are the calls of the source. No cut-off for these calls is given here.
# Experiments:
# [1] = system: Staphylococcus aureus; experiment: Antimicrobial activity against Staphylococcus aureus expressing mgrA C12S mutant gene harboring Pyj335-His-mgrA assessed as visible growth at 0.20 ug/ml after 24 hrs in presence of 25 uM paraquat; type: functional, organism-based
# [2] = system: Staphylococcus aureus; experiment: Antimicrobial activity against Staphylococcus aureus expressing mgrA C12S mutant gene harboring plasmid Pyj335 assessed as visible growth at 0.65 ug/ml after 24 hrs in presence of 20 uM paraquat; type: functional, organism-based
# [3] = system: Staphylococcus aureus; experiment: Antimicrobial activity against Staphylococcus aureus expressing mgrAC12S mutant gene assessed as highest concentration at which growth was visible after 24 hrs; type: functional
# [4] = system: Staphylococcus aureus; experiment: Antimicrobial activity against Staphylococcus aureus assessed as highest concentration at which growth was visible after 24 hrs; type: functional
# [5] = system: Staphylococcus aureus; experiment: Antimicrobial activity against Staphylococcus aureus expressing mgrA C12S mutant gene harboring plasmid Pyj335 assessed as visible growth at 0.35 ug/ml after 24 hrs; type: functional, organism-based
# [6] = system: Staphylococcus aureus; experiment: Antimicrobial activity against Staphylococcus aureus assessed as visible growth at 0.25 ug/ml after 24 hrs; type: functional, organism-based
# [7] = system: Staphylococcus aureus; experiment: Antimicrobial activity against Staphylococcus aureus expressing mgrA C12S mutant gene harboring plasmid Pyj335 assessed as visible growth at 0.25 ug/ml after 24 hrs in presence of 20 uM paraquat; type: functional, organism-based
# [8] = system: Staphylococcus aureus; experiment: Antimicrobial activity against Staphylococcus aureus assessed as visible growth at 0.45 ug/ml after 24 hrs; type: functional, organism-based
# [9] = system: Staphylococcus aureus; experiment: Antimicrobial activity against Staphylococcus aureus expressing mgrA C12S mutant gene harboring plasmid Pyj335 assessed as visible growth at 0.45 ug/ml after 24 hrs; type: functional, organism-based
# [10] = system: Staphylococcus aureus; experiment: Antimicrobial activity against Staphylococcus aureus expressing mgrA C12S mutant gene harboring pYJ335-His-mgrA C12S assessed as highest concentration at which growth was visible after 24 hrs; type: functional
# [11] = system: Staphylococcus aureus; experiment: Antimicrobial activity against Staphylococcus aureus expressing mgrA C12S mutant gene harboring plasmid Pyj335 assessed as highest concentration at which growth was visible after 24 hrs; type: functional
# [12] = system: Staphylococcus aureus; experiment: Antimicrobial activity against Staphylococcus aureus expressing mgrA C12S mutant gene harboring pYJ335 assessed as highest concentration at which growth was visible after 24 hrs in presence of 20 uM paraquat; type: functional
# [13] = system: Staphylococcus aureus; experiment: Antimicrobial activity against Staphylococcus aureus expressing mgrA C12S mutant gene harboring Pyj335-His-mgrA assessed as visible growth at 0.75 ug/ml after 24 hrs; type: functional, organism-based
# [14] = system: Staphylococcus aureus; experiment: Antimicrobial activity against Staphylococcus aureus assessed as highest concentration at which growth was visible after 24 hrs in presence of 20 uM paraquat; type: functional
# [15] = system: Staphylococcus aureus; experiment: Antimicrobial activity against Staphylococcus aureus expressing mgrA C12S mutant gene assessed as visible growth at 0.65 ug/ml after 24 hrs; type: functional, organism-based
# [16] = system: Staphylococcus aureus; experiment: Antimicrobial activity against Staphylococcus aureus expressing mgrA C12S mutant gene; type: functional
# [17] = system: Staphylococcus aureus; experiment: Antimicrobial activity against Staphylococcus aureus expressing mgrA C12S mutant gene harboring Pyj335-His-mgrA assessed as visible growth at 0.65 ug/ml after 24 hrs in presence of 20 uM paraquat; type: functional, organism-based
# [18] = system: Staphylococcus aureus; experiment: Antimicrobial activity against Staphylococcus aureus expressing mgrA C12S mutant gene harboring Pyj335-His-mgrA C12S assessed as highest concentration at which growth was visible after 24 hrs in presence of 20 uM paraquat; type: functional
# [19] = system: Staphylococcus aureus; experiment: Antimicrobial activity against Staphylococcus aureus assessed as visible growth at 0.75 ug/ml after 24 hrs in presence of 20 uM paraquat; type: functional, organism-based
# [20] = system: Staphylococcus aureus; experiment: Antimicrobial activity against Staphylococcus aureus; type: functional
# [21] = system: Staphylococcus aureus; experiment: Antimicrobial activity against Staphylococcus aureus expressing mgrAC12S mutant gene harboring plasmid Pyj335-His-mgrA C12S assessed as highest concentration at which growth was visible after 24 hrs in presence of 20 uM paraquat; type: functional
# [22] = system: Staphylococcus aureus; experiment: Antimicrobial activity against Staphylococcus aureus assessed as visible growth at 0.65 ug/ml after 24 hrs in presence of 20 uM paraquat; type: functional, organism-based
# [23] = system: Staphylococcus aureus; experiment: Antimicrobial activity against Staphylococcus aureus expressing mgrA C12S mutant gene harboring Pyj335-His-mgrA C12S assessed as visible growth at 0.20 ug/ml after 24 hrs; type: functional, organism-based
# [24] = system: Staphylococcus aureus; experiment: Antimicrobial activity against Staphylococcus aureus expressing mgrA C12S mutant gene harboring Pyj335-His-mgrA assessed as visible growth at 0.75 ug/ml after 24 hrs in presence of 20 uM paraquat; type: functional, organism-based
# [25] = system: Staphylococcus aureus; experiment: Antimicrobial activity against Staphylococcus aureus expressing mgrA C12S mutant gene harboring Pyj335-His-mgrA assessed as visible growth at 0.35 ug/ml after 24 hrs; type: functional, organism-based
# [26] = system: Staphylococcus aureus; experiment: Antimicrobial activity against Staphylococcus aureus expressing mgrAC12S mutant gene assessed as highest concentration at which growth was visible after 24 hrs in presence of 20 uM paraquat; type: functional
# [27] = system: Staphylococcus aureus; experiment: Antimicrobial activity against Staphylococcus aureus expressing mgrA C12S mutant gene harboring Pyj335-His-mgrA assessed as visible growth at 0.6 ug/ml after 24 hrs; type: functional, organism-based
# [28] = system: Staphylococcus aureus; experiment: Antimicrobial activity against Staphylococcus aureus expressing mgrA C12S mutant gene harboring plasmid Pyj335 assessed as visible growth at 2.2 ug/ml after 24 hrs in presence of 20 uM paraquat; type: functional, organism-based
# [29] = system: Staphylococcus aureus; experiment: Antimicrobial activity against Staphylococcus aureus expressing mgrA C12S mutant gene assessed as visible growth at 2.6 ug/ml after 24 hrs in presence of 20 uM paraquat; type: functional, organism-based
# [30] = system: Staphylococcus aureus; experiment: Antimicrobial activity against Staphylococcus aureus expressing mgrA C12S mutant gene harboring plasmid Pyj335 assessed as visible growth at 1 ug/ml after 24 hrs; type: functional, organism-based
# [31] = system: Staphylococcus aureus; experiment: Antimicrobial activity against Staphylococcus aureus expressing mgrA C12S mutant gene harboring plasmid Pyj335 assessed as visible growth at 0.6 ug/ml after 24 hrs; type: functional, organism-based
# [32] = system: Staphylococcus aureus; experiment: Antimicrobial activity against Staphylococcus aureus expressing mgrA C12S mutant gene harboring plasmid Pyj335 assessed as visible growth at 1.1 ug/ml after 24 hrs; type: functional, organism-based
# [33] = system: Staphylococcus aureus; experiment: Antimicrobial activity against Staphylococcus aureus expressing mgrA C12S mutant gene harboring plasmid Pyj335 assessed as visible growth at 2.2 ug/ml after 24 hrs; type: functional, organism-based
# [34] = system: Staphylococcus aureus; experiment: Antimicrobial activity against Staphylococcus aureus expressing mgrA C12S mutant gene harboring Pyj335-His-mgrA assessed as visible growth at 2.6 ug/ml after 24 hrs in presence of 20 uM paraquat; type: functional, organism-based
# [35] = system: Staphylococcus aureus; experiment: Antimicrobial activity against Staphylococcus aureus expressing mgrA C12S mutant gene harboring Pyj335-His-mgrA assessed as visible growth at 2.2 ug/ml after 24 hrs; type: functional, organism-based
# [36] = system: Staphylococcus aureus; experiment: Antimicrobial activity against Staphylococcus aureus expressing mgrA C12S mutant gene harboring plasmid Pyj335 assessed as visible growth at 1 ug/ml after 24 hrs in presence of 20 uM paraquat; type: functional, organism-based
# [37] = system: Staphylococcus aureus; experiment: Antimicrobial activity against Staphylococcus aureus expressing mgrA C12S mutant gene harboring Pyj335-His-mgrA assessed as visible growth at 2.2 ug/ml after 24 hrs in presence of 20 uM paraquat; type: functional, organism-based
# [38] = system: Staphylococcus aureus; experiment: Antimicrobial activity against Staphylococcus aureus expressing mgrA C12S mutant gene harboring Pyj335-His-mgrA C12S assessed as visible growth at 1.1 ug/ml after 24 hrs in presence of 25 uM of paraquat; type: functional, organism-based
# [39] = system: Staphylococcus aureus; experiment: Antimicrobial activity against Staphylococcus aureus expressing mgrA C12S mutant gene assessed as visible growth at 1 ug/ml after 24 hrs in presence of 20 uM paraquat; type: functional, organism-based
smiles,measurement,setting,value
O=C(O)c1cn(C2CC2)c2cc(N3CCNCC3)c(F)cc2c1=O [CIPROFLOXACIN],Activity,[1],Active
same,Activity,[2],inactive
same,Activity,[3],0.65 µg/mL
same,Activity,[4],0.25 µg/mL
same,Activity,[5],inactive
same,Activity,[6],inactive
same,Activity,[7],inactive
same,Activity,[8],Active
same,Activity,[9],inactive
same,Activity,[10],0.35 µg/mL
same,Activity,[11],0.65 µg/mL
same,Activity,[12],0.65 µg/mL
same,Activity,[13],Active
same,Activity,[14],0.45 µg/mL
same,Activity,[15],inactive
same,MIC,[16],0.7 µg/mL
same,Activity,[17],Active
same,Activity,[18],0.35 µg/mL
same,Activity,[19],Active
same,MIC,[20],0.35 µg/mL
same,Activity,[21],0.55 µg/mL
same,Activity,[22],Active
same,Activity,[23],Active
same,Activity,[24],Active
same,Activity,[25],Active
same,Activity,[26],0.65 µg/mL
CN[C@H](CC(C)C)C(=O)N[C@H]1C(=O)N[C@@H](CC(N)=O)C(=O)N[C@H]2C(=O)N[C@H]3C(=O)N[C@H](C(=O)N[C@H](C(=O)O)c4cc(O)cc(O)c4-c4cc3ccc4O)[C@H](O)c3ccc(c(Cl)c3)Oc3cc2cc(c3O[C@@H]2O[C@H](CO)[C@@H](O)[C@H](O)[C@H]2O[C@H]2C[C@](C)(N)[C@H](O)[C@H](C)O2)Oc2ccc(cc2Cl)[C@H]1O [VANCOMYCIN],Activity,[27],inactive
same,Activity,[3],2.2 µg/mL
same,Activity,[4],1 µg/mL
same,Activity,[28],inactive
same,Activity,[10],1.4 µg/mL
same,Activity,[11],2.2 µg/mL
same,Activity,[29],Active
same,Activity,[12],2.2 µg/mL
same,Activity,[30],inactive
same,Activity,[31],inactive
same,Activity,[32],inactive
same,Activity,[33],inactive
same,Activity,[34],Active
same,Activity,[14],1.4 µg/mL
same,MIC,[16],2.4 µg/mL
same,Activity,[18],1.4 µg/mL
same,Activity,[35],Active
same,Activity,[36],inactive
same,MIC,[20],1.2 µg/mL
same,Activity,[21],1.8 µg/mL
same,Activity,[37],Active
same,Activity,[38],Active
same,Activity,[39],inactive
same,Activity,[26],2.2 µg/mL
